Test results from paper PMC4450297, “Screening Active Compounds from Garcinia Species Native to China Reveals Novel Compounds Targeting the STAT/JAK Signaling Pathway” (BioMed Research International, 2015).

What was measured:
Test in all cases: Cell panel screen (CellTiter-Glo)
Assay type in all cases: cell-based, human
J82 = J82 (Urinary bladder), 20 micromolar, 72 hrs
How it was run: (§1)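 Tested once at 20 μM (final) over 72 h in cells cultured with 10% FBS. Luciferase/ATP luminescence read-out, background-corrected and normalised to vehicle controls.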

NCI-H2405 = NCI-H2405 (Lung), 20 micromolar, 72 hrs
How it was run: as §1

C8166 = C8166 (Leukemia), 20 micromolar, 72 hrs
How it was run: as §1

NCI-H1694 = NCI-H1694 (Lung), 20 micromolar, 72 hrs
How it was run: as §1

NCI-H1623 = NCI-H1623 (Lung), 20 micromolar, 72 hrs
How it was run: as §1

RL95 = RL95 (Uterus), 20 micromolar, 72 hrs
How it was run: as §1

HCC1395 = HCC1395 (Breast), 20 micromolar, 72 hrs
How it was run: as §1

CW-2 = CW-2 (Colon), 20 micromolar, 72 hrs
How it was run: as §1

BT-474 = BT-474 (Breast), 20 micromolar, 72 hrs
How it was run: as §1

NCI-H1770 = NCI-H1770 (Lung), 20 micromolar, 72 hrs
How it was run: as §1

HCC1569 = HCC1569 (Breast), 20 micromolar, 72 hrs
How it was run: as §1

M059J = M059J (Brain), 20 micromolar, 72 hrs
How it was run: as §1

Bel-7402 = Bel-7402 (Liver), 20 micromolar, 72 hrs
How it was run: as §1

MSTO-211-H = MSTO-211-H (Lung), 20 micromolar, 72 hrs
How it was run: as §1

HCC1937 = HCC1937 (Breast), 20 micromolar, 72 hrs
How it was run: as §1

ZR-75-30 = ZR-75-30 (Breast), 20 micromolar, 72 hrs
How it was run: as §1

ChaGo-K-1 = ChaGo-K-1 (Lung), 20 micromolar, 72 hrs
How it was run: as §1

A704 = A704 (Kidney), 20 micromolar, 72 hrs
How it was run: as §1

T47D = T47D (Breast), 20 micromolar, 72 hrs
How it was run: as §1

NCI-H28 = NCI-H28 (Lung), 20 micromolar, 72 hrs
How it was run: as §1

NCI-H524 = NCI-H524 (Lung), 20 micromolar, 72 hrs
How it was run: as §1

Colo 205 = settings: Colo 205, 20 micromolar, 72 hrs
How it was run: as §1

C3A = C3A (Liver), 20 micromolar, 72 hrs
How it was run: as §1

NCI-H2347 = NCI-H2347 (Lung), 20 micromolar, 72 hrs
How it was run: as §1

HT-1197 = HT-1197 (Urinary bladder), 20 micromolar, 72 hrs
How it was run: as §1

Panc 03.27 = Panc 03.27 (Pancreas), 20 micromolar, 72 hrs
How it was run: as §1

T98G = T98G (Brain), 20 micromolar, 72 hrs
How it was run: as §1

CCF-STTG1 = CCF-STTG1 (Brain), 20 micromolar, 72 hrs
How it was run: as §1

HGC-27 = HGC-27 (Stomach), 20 micromolar, 72 hrs
How it was run: as §1

BT-549 = BT-549 (Breast), 20 micromolar, 72 hrs
How it was run: as §1

SW13 = SW13 (Adrenal gland), 20 micromolar, 72 hrs
How it was run: as §1

HEC-1-A = HEC-1-A (Uterus), 20 micromolar, 72 hrs
How it was run: as §1

HPAF-II = HPAF-II (Pancreas), 20 micromolar, 72 hrs
How it was run: as §1

TCCSUP = TCCSUP (Urinary bladder), 20 micromolar, 72 hrs
How it was run: as §1

A498 = A498 (listed under Lung), 20 micromolar, 72 hrs
How it was run: as §1

HCC1599 = HCC1599 (Breast), 20 micromolar, 72 hrs
How it was run: as §1

[1] = Homo sapiens, read-out: Percent Inhibition

`CC(C)=CCc1c(O)cc(O)c2c1O[C@]13C(=C[C@@H]4C[C@H]1C(C)(C)O[C@@]3(CC=C(C)C)C4=O)C2=O` [GB35] was tested, and the “Percent Inhibition” value (J82) was 99%, the “Percent Inhibition” value (NCI-H2405) was 99% and the “Percent Inhibition” value (C8166) was 99%. The “Percent Inhibition” value (NCI-H1694) was 100%, the “Percent Inhibition” value (NCI-H1623) was 100% and the “Percent Inhibition” value (RL95) was 100%. For the same compound, the “Percent Inhibition” value (HCC1395) was 100%, the “Percent Inhibition” value (CW-2) was 100% and the “Percent Inhibition” value (BT-474) was 99%. The “Percent Inhibition” value (NCI-H1770) was 100%, the “Percent Inhibition” value (HCC1569) was 100% and the “Percent Inhibition” value (M059J) was 100%. For the same compound, the “Percent Inhibition” value (Bel-7402) was 99%, the “Percent Inhibition” value (MSTO-211-H) was 99% and the “Percent Inhibition” value (HCC1937) was 100%. The “Percent Inhibition” value (ZR-75-30) was 100%, the “Percent Inhibition” value (ChaGo-K-1) was 99% and the “Percent Inhibition” value (A704) was 99%. For the same compound, the “Percent Inhibition” value (T47D) was 100%, the “Percent Inhibition” value (NCI-H28) was 93% and the “Percent Inhibition” value (NCI-H524) was 100%. The “Percent Inhibition” value (Colo 205) was 100%, the “Percent Inhibition” value (C3A) was 98% and the “Percent Inhibition” value (NCI-H2347) was 97%. The “Percent Inhibition” value (HT-1197) was 96%, the “Percent Inhibition” value (Panc 03.27) was 99% and the “Percent Inhibition” value (T98G) was 100%. The “Percent Inhibition” value (CCF-STTG1) was 100%, the “Percent Inhibition” value (HGC-27) was 100% and the “Percent Inhibition” value (BT-549) was 100%. For the same compound, the “Percent Inhibition” value (SW13) was 100%, the “Percent Inhibition” value (HEC-1-A) was 100% and the “Percent Inhibition” value (HPAF-II) was 100%. The “Percent Inhibition” value (TCCSUP) was 100%, the “Percent Inhibition” value (A498) was 93% and the “Percent Inhibition” value (HCC1599) was 100%.
Compound `CC(C)=CCc1c(O)cc2oc3c(CC=C(C)C)c(O)c(O)c(CC=C(C)C)c3c(=O)c2c1O` [bn-1, Garcinone E] has an inhibition at 20 µM (J82; [1]) of 98%, an inhibition at 20 µM (NCI-H2405; [1]) of 93% and an inhibition at 20 µM (C8166; [1]) of 99%. The inhibition at 20 µM (NCI-H1694; [1]) was 100%, the inhibition at 20 µM (NCI-H1623; [1]) was 91% and the inhibition at 20 µM (RL95; [1]) was 99%. The inhibition at 20 µM (HCC1395; [1]) was 100%, the inhibition at 20 µM (CW-2; [1]) was 99% and the inhibition at 20 µM (BT-474; [1]) was 87%. It also gave an inhibition at 20 µM (NCI-H1770; [1]) of 93%, an inhibition at 20 µM (HCC1569; [1]) of 96% and an inhibition at 20 µM (M059J; [1]) of 95%. The inhibition at 20 µM (Bel-7402; [1]) was 98%, the inhibition at 20 µM (MSTO-211-H; [1]) was 98% and the inhibition at 20 µM (HCC1937; [1]) was 97%. It also gave an inhibition at 20 µM (ZR-75-30; [1]) of 99%, an inhibition at 20 µM (ChaGo-K-1; [1]) of 99% and an inhibition at 20 µM (A704; [1]) of 98%. The inhibition at 20 µM (T47D; [1]) was 82%, the inhibition at 20 µM (NCI-H28; [1]) was 95% and the inhibition at 20 µM (NCI-H524; [1]) was 100%. The inhibition at 20 µM (Colo 205; [1]) was 98%, the inhibition at 20 µM (C3A; [1]) was 90% and the inhibition at 20 µM (NCI-H2347; [1]) was 79%. The inhibition at 20 µM (HT-1197; Homo sapiens, HT1197, read-out: Percent Inhibition) was 97%, the inhibition at 20 µM (Panc 03.27; Homo sapiens, PANC-03-27, read-out: Percent Inhibition) was 90% and the inhibition at 20 µM (T98G; [1]) was 100%. It also gave an inhibition at 20 µM (CCF-STTG1; [1]) of 89%, an inhibition at 20 µM (HGC-27; [1]) of 99% and an inhibition at 20 µM (BT-549; [1]) of 98%. It also gave an inhibition at 20 µM (SW13; [1]) of 97%, an inhibition at 20 µM (HEC-1-A; [1]) of 87% and an inhibition at 20 µM (HPAF-II; [1]) of 90%. For the same compound, the inhibition at 20 µM (TCCSUP; Homo sapiens, TCC-SUP, read-out: Percent Inhibition) was 97%, the inhibition at 20 µM (A498; [1]) was 98% and the inhibition at 20 µM (HCC1599; [1]) was 98%.
`COc1ccc2c(=O)c3c(O)cc(O)cc3oc2c1OC` [Go-14] was tested, and the “Percent Inhibition” value (J82) was -8%, the “Percent Inhibition” value (NCI-H2405) was -10% and the “Percent Inhibition” value (C8166) was 2%. For the same compound, the “Percent Inhibition” value (NCI-H1694) was -3%, the “Percent Inhibition” value (NCI-H1623) was -10% and the “Percent Inhibition” value (RL95) was -5%. For the same compound, the “Percent Inhibition” value (HCC1395) was -8%, the “Percent Inhibition” value (CW-2) was 5% and the “Percent Inhibition” value (BT-474) was -23%. The “Percent Inhibition” value (NCI-H1770) was -4%, the “Percent Inhibition” value (HCC1569) was 2% and the “Percent Inhibition” value (M059J) was 0%. The “Percent Inhibition” value (Bel-7402) was -8%, the “Percent Inhibition” value (MSTO-211-H) was 11% and the “Percent Inhibition” value (HCC1937) was 3%. The “Percent Inhibition” value (ZR-75-30) was -20%, the “Percent Inhibition” value (ChaGo-K-1) was -16% and the “Percent Inhibition” value (A704) was -13%. The “Percent Inhibition” value (T47D) was -3%, the “Percent Inhibition” value (NCI-H28) was -3% and the “Percent Inhibition” value (NCI-H524) was -5%. The “Percent Inhibition” value (Colo 205) was 8%, the “Percent Inhibition” value (C3A) was -7% and the “Percent Inhibition” value (NCI-H2347) was -2%. The “Percent Inhibition” value (HT-1197) was -3%, the “Percent Inhibition” value (Panc 03.27) was 4% and the “Percent Inhibition” value (T98G) was 8%. For the same compound, the “Percent Inhibition” value (CCF-STTG1) was -1%, the “Percent Inhibition” value (HGC-27) was -2% and the “Percent Inhibition” value (BT-549) was -16%. The “Percent Inhibition” value (SW13) was -12%, the “Percent Inhibition” value (HEC-1-A) was -6% and the “Percent Inhibition” value (HPAF-II) was 0%. The “Percent Inhibition” value (TCCSUP) was 6%, the “Percent Inhibition” value (A498) was -2% and the “Percent Inhibition” value (HCC1599) was 0%.
